This passage reports IC50 results from patent publication US9145411B2, “Substituted amino-pyrimidine derivatives” (Asana Biosciences, LLC, priority 2012, dated 2015).

The test deals with pAkt(T308). The test can be described thus: In-cell Western assay, pAkt(T308), U87MG cells. The format is cell-based. Conditions: Homo sapiens, U-87 MG, read-out: inhibition of pAkt(T308), IC50. The protocol: Cells from human prostate cancer cell line PC3 (American Type Culture Collection (ATCC), Manassas, Va. 20108 USA) were seeded at an optimal density of 22,000 cell/well in 96-well plates containing Ham's F12K medium (90 μL) and incubated overnight. The compound dilutions were carried out in 100% DMSO followed by a dilution in the medium. Test compounds were added in serial dilutions to the wells and incubated for 2 hours. The cells were washed and fixed with 4% paraformaldehyde. After incubation at room temperature for 1 hour in the dark, blocking was done for 2 hours at room temperature. […] IC50 values were calculated using a sigmoidal dose-response curve fit in GraphPad Prism® v5 software.
In-cell Western assays for pAkt(T308) and pS6RP were also carried out in a glioma cancer cell line with a PTEN null mutation (U87MG cells), in a similar manner to the protocol described above for PC3 cells, in order to assess the ability of the compounds to inhibit the Akt-pathway in a glioma cancer cell line. […] Compounds of the invention cause inhibition of pAkt(T308), pAkt(S473) and pS6RP in U87MG, BT474 and T47D cell lines as determined by these assays.

A value given as a limit tells only on which side of the number the result lay.

Consider `CC(=O)Nc1cccc(-c2cnc3c(N4CCOCC4)nc(-c4cnc(N)nc4)nc3c2)c1` [Example 3, N-(3-(2-(2-Aminopyrimidin-5-yl)-4-morpholinopyrido[3,2-d]pyrimidin-7-yl)-phenyl)acetamide], for which the IC50 is < 500 nM.
